Like-named read-outs stand apart in the source and are kept apart here.
Key:
MHV-1 [1] = test: Syncytium formation in DBT cells infected with MHV-1 (microscopy images); assay type: cell-based, murine hepatitis virus; details: for inhibitory effect on syncytium formation and cell-cell fusion / inhibitory effect on syncytium formation and fusion: DBT cells pre-treated three hours, 893 10 μM, images at 48 hours; for inhibitory effect on syncytium formation and cell-cell fusion: NAV2729 5 μM, SecinH3 30 μM; for inhibitory effect on syncytium formation and fusion: YM201636 400 nM, apilimod 50 nM; for syncytium formation induced by MHV-1: DBT cells, 4 μM
MHV-1 [2] = test: Viral titer by plaque assay, DBT cells infected with MHV-1; assay type: cell-based, murine hepatitis virus
[3] = test system: endolysosomal trafficking; test: Inhibition of endolysosomal trafficking in vitro; assay type: cell-based
MHV-A59 [4] = assay type: cell-based, murine hepatitis virus; details: DBT cells, MOI 0.1, plaque assay at 24 or 48 hours
Serum protein binding = assay type: in vitro ADME
ACE2 receptor = assay type: cell-based; details: pre-treated VeroE6 cells
MHV-1 [5] = test: MHV-1 intranasal infection of male A/J mice, lung viral titer and lung weight; details: 120 mg/kg by gavage 6 hours prior to and 18 hours after infection, 500 pfu MHV-1 intranasally, 24 hours post-infection
[6] = Pharmacokinetics and tissue levels upon oral administration
in vivo = details: po
[7] = in vivo
MHV-A59 [8] = test: Syncytium formation in DBT cells infected with MHV-A59 (phase contrast microscopy); assay type: cell-based, murine hepatitis virus; details: 4 μM, MOI 0.1, 24 hours post infection
Experimental: To determine whether PP2A activation mitigates syncytium formation induced by coronaviruses, DBT cells were treated with 4 μM of compound 893 before or after infection with MHV-A59 at a multiplicity of infection (MOI) of 0.1 and then assessed for syncytium formation via phase contrast microscopy 24 hours post infection.

[9] = DBT cells pre-treated three hours, 893 10 μM, NAV2729 5 μM, SecinH3 30 μM, plaque assay 48 hours post infection
[10] = after viral infection (post-treatment)

Molecule: OCCN1CCN(CCCN2c3ccccc3Sc3ccc(Cl)cc32)CC1 [PPZ, perphenazine, reference compound]
- syncytium formation and fusion (MHV-1 [1]; DBT cells infected with MHV-1, pretreatment with PP2A agonist): as efficiently as compound 893
- reduction of viral titers of MHV-1 (MHV-1 [2]; DBT cells, pretreatment with PP2A agonist): to a degree similar to that of compound 893

Molecule: COc1nc(-c2ccc3c(c2)OCO3)n(-c2ccc(NC(=O)CSc3ccccc3)cc2)n1 [SecinH3, reference compound]
- inhibitory effect on syncytium formation and cell-cell fusion (MHV-1 [1]): inhibitory effect
- reduction of viral titers of MHV-1 (MHV-1 [2]; [9]): about 1 log

Molecule: Nc1ccc(C(=O)Nc2cccc(-c3nc(N4CCOCC4)c4oc5ncccc5c4n3)c2)cn1 [YM201636]
- inhibitory effect on syncytium formation and fusion (MHV-1 [1]): inhibitory effect

Molecule: Cc1cccc(/C=N/Nc2cc(N3CCOCC3)nc(OCCc3ccccn3)n2)c1 [apilimod]
- inhibitory effect on syncytium formation and fusion (MHV-1 [1]): inhibitory effect

Molecule: CCCCCCCCc1ccc([C@H]2CCN[C@@H]2CO)cc1.Cl [compound 893]
- resistance to metabolism (Resistance to metabolism): resistant to metabolism
- inhibitory effect on syncytium formation and cell-cell fusion (MHV-1 [1]): inhibitory effect
- inhibitory effect on syncytium formation and fusion (MHV-1 [1]): greater for 893 than for YM201636 or apilimod
- syncytium formation induced by MHV-1 (MHV-1 [1]; [10]): potently prevented syncytium formation
- syncytium formation induced by MHV-1 (MHV-1 [1]; pre-treatment): potently prevented syncytium formation
- concentration required to inhibit endolysosomal trafficking [3]: 1 to 10 µM
- reduction of viral titers of MHV-A59 (MHV-A59 [4]; 4-5 μM added one hour after infection): 3-4 logs
- reduction of viral titers of MHV-A59 (MHV-A59 [4]; 4-5 μM for three hours prior to infection, washed 1 hour after infection): 3-4 logs
- binding by serum proteins (Serum protein binding): highly bound by serum proteins
- ACE2 receptor localization at the outer cell membrane (ACE2 receptor): reduction of ACE2 receptor localization at the outer cell membrane
- reduction of viral titers of MHV-1 (MHV-1 [2]; [9]): ~3 log
- reduction of viral titers of MHV-1 (MHV-1 [2]; DBT cells pre-treated three hours, 893 10 μM, YM201636 400 nM, apilimod 50 nM, plaque assay 48 hours post infection): ~3 logs
- reduction of viral titers of MHV-1 (MHV-1 [2]; DBT cells, 4-5 μM added one hour after infection, MOI 0.1, plaque assay at 24 or 48 hours): 3-4 logs
- reduction of viral titers of MHV-1 (MHV-1 [2]; DBT cells, 4-5 μM for three hours prior to infection, MOI 0.1, washed 1 hour after infection, plaque assay at 24 or 48 hours): 3-4 logs
- lung weight (MHV-1 [5]): reduced lung weight
- reduction in infectious virus within the lungs (MHV-1 [5]): 2 log
- total drug levels in the lungs relative to concentration required in vitro ([6]; compared with 1-10 μM required in vitro): 300 fold
- concentration at 5 days ([6]; lungs, brain, liver (many tissues), po, 120 mg/kg): > 100 µM
- half-life (in vivo): 10.6 h
- oral bioavailability [7]: orally bioavailable
- syncytium formation induced by MHV-A59 (MHV-A59 [8]; [10]): potently prevented syncytium formation
- syncytium formation induced by MHV-A59 (MHV-A59 [8]; pre-treatment): potently prevented syncytium formation

Molecule: NAV2729 [reference compound]
- inhibitory effect on syncytium formation and cell-cell fusion (MHV-1 [1]): inhibitory effect
- reduction of viral titers of MHV-1 (MHV-1 [2]; [9]): about 1 log
